# Source: patent US9474282B2, “Acid-solubilized copper-ammonium complexes and copper-zinc-ammonium complexes, compositions, preparations, methods, and uses” (priority 2013, dated 2016)
# Marks after values point to notes of the source that are not given here.
# What was measured:
# [1] = tested on: Staphylococcus aureus strain (S1); assay: Agar plate test for antibacterial effect, area of inhibition; assay type: cell-based
# Protocol: (§1) A 0.2 milliliter sample of the P. acnes culture was spread onto a 9 centimeter Petri dish containing BHI agar and allowed to dry.
# (§2) The composition to be tested was either diluted with distilled water and 5 microliters was placed onto a 5 millimeter filter paper disc or was added to the Aloe vera-based gel (without preservatives) described above at various concentrations and a 5 microliter drop was placed onto the agar surface. The plates were then incubated at 37° C. for 24 hours (under anaerobic conditions for P. acnes), when the zones of inhibition (ZoI) were measured in millimeters) twice at a […] angle using a ruler and the average diameter (D) was calculated. The area of inhibition in mm^2 (AoI) was calculated using the formula: AoI=π×(D/2)^2.
# [2] = tested on: P. acnes; assay: Bacterial microplate cultures (MIC); assay type: cell-based, Propionibacterium acnes
# Protocol: (§3) The aerobic bacterial strains Acinetobacter baumannii (A. baumannii), methicillin-resistant Staphylococcus aureus (MRSA) and Klebsiella pneumonia (K. pneumoniae) were isolated from swabs taken in a hospital ward. Escherichia coli (NCTC 9001; E. coli) is a clinical isolate from a patient's urinary bladder; all strains were cultured in RPMI-1640. Stock solutions of the compounds/compositions to be tested were diluted so that double dilutions in the microplate assays commenced at a 1% vol/vol concentration. Double dilutions of the compositions to be tested were prepared in RPMI-1640 in a 96-well tissue culture plate. The bacterial cultures were diluted 1:40 with fresh RPMI and added to the compositions. P. acnes was cultured as described in EXAMPLE 1 (Agar plate test methods) and a sample was diluted 1:100 with fresh BHI. Double dilutions of the compositions to be tested were prepared as described above in distilled water in a 96-well tissue culture plate (100 microliters) and 100 microliters of the diluted P. acnes culture was added. The plates were then incubated at 37° C. for 24 hours (under anaerobic conditions for P. acnes). The minimum inhibitory concentration (MIC) of the compositions was defined as the lowest concentration at which no visible bacterial growth was observed.
# [3] = tested on: Candida albicans strains 1-1, 3-1 and 4-1; assay: Anti-fungal/yeast microplate assay (MIC, resazurin); assay type: cell-based
# Protocol: (§4) The three strains of Candida albicans (C. albicans) used: 1-1, 3-1 and 4-1 were isolated from human blood, vagina and oropharynx, respectively. Cryptococcus neoformans (C. neoformans) strain CCTP13 was used. All strains were cultured in RPMI-1640 medium at 37° C. The copper sulfate and Cu# compositions started at a high concentration of 200 micrograms/milliliter, whilst the Cu—Zn# compositions started at a high concentrations of 1% of the stock solution (Table 2) and zinc sulfate and phosphorous acid started with a high concentrations equivalent to those in Cu—Zn#7 and #10 (see the legend of Table 1 for details) doubling dilutions (100 microliters) of the compositions were prepared in RPMI-1640 in a 96-well tissue culture plate. Overnight C. albicans and C. neoformans cultures were diluted 1:40 and 1:10 respectively with fresh RPMI containing 40 mM MOPS buffer and 90 microliters was added to the compositions in the plate. Resazurin A (10 microliters of a 0.0675% wt/vol solution in distilled water) was added as an indicator of growth, and the cultures were incubated at 37° C. for 24 hr. The minimum inhibitory concentration (MIC) of the compounds/compositions was defined as the lowest concentration at which the resazurin A indicator remained blue (living cells convert the blue dye to a pink color).
# [4] = tested on: Cryptococcus neoformans strain CCTP13; assay: as above; assay type: cell-based; settings: C. neoformans
# Protocol: as §4
# [5] = tested on: Propionibacterium acnes strain ATCC 11828 (P. acnes); assay: Agar plate test for antibacterial effect, zone of inhibition; assay type: cell-based; settings: stock diluted 1:200 in distilled water (200 microgram/milliliter elemental copper for Cu# and copper sulfate), BHI agar, 24 hours anaerobic
# Protocol: as §1, §2
# [6] = pH of stock solutions and gel formulation; assay type: physicochemical; settings: stock solution
# [7] = tested on: Acinetobacter baumannii (A. baumannii); assay: Bacterial microplate cultures (MIC); assay type: cell-based; settings: RPMI-1640, 24 hours
# Protocol: as §3
# [8] = tested on: Escherichia coli (NCTC 9001; E. coli); assay: Bacterial microplate cultures (MIC); assay type: cell-based; settings: RPMI-1640, 24 hours
# Protocol: as §3
# [9] = tested on: Klebsiella pneumonia (K. pneumoniae); assay: Bacterial microplate cultures (MIC); assay type: cell-based; settings: RPMI-1640, 24 hours
# Protocol: as §3
# [10] = tested on: methicillin-resistant Staphylococcus aureus (MRSA); assay: Bacterial microplate cultures (MIC); assay type: cell-based; settings: RPMI-1640, 24 hours
# Protocol: as §3
# [11] = tested on: Aspergillus niger (A. niger); assay: Anti-fungal assay with plant pathogenic fungi on PDA; assay type: cell-based
# Protocol: (§5) Chalara […] isolate 196/28 ([…]), Aspergillus niger (A. niger) and a strain isolated from powdery mildew (Pm; isolated from an apple leaf) were cultured on potato dextrose agar (PDA) at room temperature (around 22° C.). […] The plate was agitated to evenly distribute the test composition evenly through the agar (distilled water alone was used as control) and then the agar was allowed to set. […] To assess the effects of compositions on fungal growth, the diameter of the fungal hyphae was measured twice at a 90° angle using a ruler and the average diameter in millimeters was calculated. If no fungal growth could be detected by eye, the cultures were observed by phase microscopy (40×) to confirm that there was no growth (NG) as judged by visual examination.
# [12] = tested on: Chalara fraxinea isolate 196/28 (C. fraxinea); assay: as above; assay type: cell-based
# Protocol: as §5
# [13] = tested on: strain isolated from powdery mildew (Pm); assay: as above; assay type: cell-based, powdery mildew (isolated from an apple leaf); settings: 3 days of culture
# Protocol: as §5
# [14] = tested on: A-431; assay: Cytotoxicity assay with a human squamous epithelial skin cell line (SRB assay); settings: confluent A-431, 24 hours, SRB (FIG. 4)
# Protocol: A-431 (ATCC) was cultured in RPMI-1640 medium supplemented with 10% fetal bovine serum and 2 mM L-glutamine (complete medium) in a humidified incubator at 37′C with a 5% CO2 in air atmosphere. For cytotoxicity experiments the cells were trypsinized, washed, counted and 2×10^4 cells were plated into the wells of flat-bottom 96-well plates in complete medium and cultured for 3 days until a confluent monolayer was formed. […] All test products were diluted in complete medium and then added in triplicate to the confluent A-431 cells which were then cultured for a further 24 hours when cytotoxicity/cell survival was quantitatively assessed using the sulforhodamine B (SRB) assay as described below.
# The cells were washed twice with RPMI-1640 medium and then fixed with 10% trichloroacetic acid for 1 hour at 4° C. After washing twice with tap water, the cells were stained with SRB (0.4% w/v SRB in 1% acetic acid) for 30 min at room temperature. After washing twice with tap water the remaining stain was dissolved in 10 mM Tris base and the absorbance of the wells was measured on a Dynatech Multiplate ELISA reader at 540 nm. Percent cell survival was calculated by dividing the test product absorbance by control absorbance and multiplying by 100.
# [15] = Experiment #1, 24 hours anaerobic
# [16] = C. albicans strain 1-1, copper-free controls, concentration of zinc sulfate or phosphorous acid
# [17] = C. albicans strain 3-1, copper-free controls, concentration of zinc sulfate or phosphorous acid
# [18] = C. albicans strain 4-1, copper-free controls, concentration of zinc sulfate or phosphorous acid
smiles,measurement,setting,value
"O=S(=O)([O-])[O-].[Zn+2] [Zinc sulfate, zinc sulfate]",effect on the growth of S1 (S. aureus),"[1]; alone in gel, 50-200 micrograms/milliliter (FIG. 2)",no effect
same,effect on the growth of S1 (S. aureus),"[1]; in gel, 100 micrograms/milliliter (FIG. 3)",no effect
same,MIC,[2]; [15],25 µg/mL
same,MIC,"[2]; Table 5 experiment, varying Cu:Zn ratios",50 µg/mL
same,MIC,[3]; [16],>150 µg/mL
same,MIC,[3]; [17],>150 µg/mL
same,MIC,[3]; [18],>150 µg/mL
same,MIC,[3]; C. albicans strains,> 150 micrograms/milliliter
same,MIC,"[4]; copper-free control, concentration of zinc sulfate",>150 µg/mL
"O=S(=O)([O-])[O-].[Cu+2] [Copper sulfate, copper sulfate]",Area of inhibition (AoI),"[1]; dissolved in gel, 800 micrograms/milliliter, TSA, 24 hours (FIG. 1)",28 mm^2
same,Zone of Inhibition (mm),[5],13 mm
same,pH of stock solutions,[6],3.4
same,MIC,[2]; [15],100 µg/mL
same,MIC,"[2]; Experiment #2, 24 hours anaerobic",200 µg/mL
same,MIC,[7],6.3 microgram/milliliter
same,MIC,[8],100 microgram/milliliter
same,MIC,[9],50 microgram/milliliter
same,MIC,[10],12.5 microgram/milliliter
same,Diameter of fungal growth (mm),"[11]; 12.5 μg/ml, Day 4",15 mm
same,Diameter of fungal growth (mm),"[11]; 12.5 μg/ml, Day 7",17 mm
same,Diameter of fungal growth (mm),"[11]; 12.5 μg/ml, Day 11",18 mm
same,Diameter of fungal growth (mm),"[11]; 37.5 μg/ml, Day 4",13 mm
same,Diameter of fungal growth (mm),"[11]; 37.5 μg/ml, Day 7",16 mm
same,Diameter of fungal growth (mm),"[11]; 37.5 μg/ml, Day 11",18 mm
same,Diameter of fungal growth (mm),"[11]; 125 μg/ml, Day 4, NG = no growth by phase microscopy",7 mm
same,Diameter of fungal growth (mm),"[11]; 125 μg/ml, Day 7, NG = no growth",10 mm
same,Diameter of fungal growth (mm),"[11]; 125 μg/ml, Day 11, NG = no growth",15 mm
same,Diameter of fungal growth (mm),"[12]; 3.75 μg/ml, Day 7",14 mm
same,Diameter of fungal growth (mm),"[12]; 3.75 μg/ml, Day 15",20 mm
same,Diameter of fungal growth (mm),"[12]; 12.5 μg/ml, Day 7",14 mm
same,Diameter of fungal growth (mm),"[12]; 12.5 μg/ml, Day 15",20 mm
same,Diameter of fungal growth (mm),"[12]; 37.5 μg/ml, Day 7",13 mm
same,Diameter of fungal growth (mm),"[12]; 37.5 μg/ml, Day 15, 20 mm = confluent",20** mm
same,Diameter of fungal growth (mm),"[12]; 125 μg/ml, Day 7",10 mm
same,Diameter of fungal growth (mm),"[12]; 125 μg/ml, Day 15",18 mm
same,Diameter of fungal growth (mm),[13]; 12.5 μg/ml,17 mm
same,Diameter of fungal growth (mm),[13]; 37.5 μg/ml,17 mm
same,Diameter of fungal growth (mm),[13]; 125 μg/ml,13 mm
same,Diameter of fungal growth (mm),"[13]; 375 μg/ml, NG = no growth",3* mm
same,MIC (μg/ml Cu^2+),"[3]; C. albicans strain 1-1, 24 hr",6.3 μg/ml Cu^2+
same,MIC (μg/ml Cu^2+),"[3]; C. albicans strain 3-1, 24 hr",6.3 μg/ml Cu^2+
same,MIC (μg/ml Cu^2+),"[3]; C. albicans strain 4-1, 24 hr",6.3 μg/ml Cu^2+
same,MIC (μg/ml Cu^2+),[4]; 24 hr,6.3 μg/ml Cu^2+
same,50% cytotoxic concentrations (CC50),[14],50 micrograms/milliliter
"OP(O)O [Composition H3PO3, phosphorous acid]",MIC,[3]; [16],>500 µg/mL
same,MIC,[3]; [17],>500 µg/mL
same,MIC,[3]; [18],>500 µg/mL
same,MIC,[3]; C. albicans strains,> 500 micrograms/milliliter
